Measurements reported in ChEMBL document CHEMBL1157998, “Koninginin G, a new metabolite from trichoderma aureoviride” (1999).

System: Triticum aestivum
Assay: Growth inhibition of etiolated wheat coleoptiles at 1000 uM relative to control
Assay type: functional
Conditions: read-out: GI

SMILES | inhibition of growth at 1000 µM
CCCCCc1cccc(=O)o1 | 100%
CCCCCC[C@H](O)[C@@H]1CC[C@@H]2[C@H](O)CC[C@H](O)[C@@]2(O)O1 [KONINGININ G] | 56%
